# Measured values: article PMC6270602 (Molecules, 2013)
# Counter-ions that a name gives are not always drawn. Like-named read-outs stand apart in the source and are kept apart here.
# How the values were obtained:
# [1] = molecular target: human recombinant AChE (hAChE; E.C. 3.1.1.7) (Homo sapiens, UniProt P22303); assay: biochemical; details: for IC50: human recombinant AChE, Ellman's method, phosphate buffer pH 7.4, mean of three independent determinations ± SD; for SI (selectivity index for hAChE): ratio of IC50 hBChE towards IC50 hAChE
# Sequence of human recombinant AChE (hAChE; E.C. 3.1.1.7) (P22303 32-614): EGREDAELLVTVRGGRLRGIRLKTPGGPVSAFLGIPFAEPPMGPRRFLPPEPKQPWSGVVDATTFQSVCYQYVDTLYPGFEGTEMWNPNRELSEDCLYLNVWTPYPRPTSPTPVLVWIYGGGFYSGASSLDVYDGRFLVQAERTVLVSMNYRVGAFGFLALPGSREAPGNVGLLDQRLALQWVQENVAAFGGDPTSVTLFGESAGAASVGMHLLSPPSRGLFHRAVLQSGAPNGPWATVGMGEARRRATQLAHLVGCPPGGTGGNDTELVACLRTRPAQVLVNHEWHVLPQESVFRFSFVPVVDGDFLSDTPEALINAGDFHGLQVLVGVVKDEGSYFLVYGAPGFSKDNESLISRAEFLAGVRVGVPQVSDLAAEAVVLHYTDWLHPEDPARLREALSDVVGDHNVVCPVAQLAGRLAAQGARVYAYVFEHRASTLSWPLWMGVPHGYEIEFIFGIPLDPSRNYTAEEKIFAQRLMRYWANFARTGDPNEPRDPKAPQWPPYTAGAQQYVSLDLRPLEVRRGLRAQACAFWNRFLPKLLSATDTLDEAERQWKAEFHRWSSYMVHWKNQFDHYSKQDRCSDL
# [2] = molecular target: human plasmatic BChE (hBChE; E.C. 3.1.1.8) (Homo sapiens, UniProt P06276); assay: biochemical
# Sequence of human plasmatic BChE (hBChE; E.C. 3.1.1.8) (P06276 29-602): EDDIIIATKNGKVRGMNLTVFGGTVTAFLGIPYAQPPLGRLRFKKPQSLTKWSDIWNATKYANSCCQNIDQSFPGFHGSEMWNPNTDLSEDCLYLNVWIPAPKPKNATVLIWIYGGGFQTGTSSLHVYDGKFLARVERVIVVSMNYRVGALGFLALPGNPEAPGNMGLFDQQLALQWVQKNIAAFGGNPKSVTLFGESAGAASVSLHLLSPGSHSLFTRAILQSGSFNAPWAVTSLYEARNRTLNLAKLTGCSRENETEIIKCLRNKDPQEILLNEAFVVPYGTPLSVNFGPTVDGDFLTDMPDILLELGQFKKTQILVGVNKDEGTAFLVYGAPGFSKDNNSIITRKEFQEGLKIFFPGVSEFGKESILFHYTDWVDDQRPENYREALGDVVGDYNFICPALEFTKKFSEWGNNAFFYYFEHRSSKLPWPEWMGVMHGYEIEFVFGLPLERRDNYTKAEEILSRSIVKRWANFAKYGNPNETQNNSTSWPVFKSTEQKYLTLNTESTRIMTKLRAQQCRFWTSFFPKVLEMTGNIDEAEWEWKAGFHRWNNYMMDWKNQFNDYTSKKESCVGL
# [3] = human plasmatic BChE, Ellman's method, phosphate buffer pH 7.4, mean of three independent determinations ± SD, read-out: IC50 (µM) ± SD hBChE
Compound,IC50 [1] [µM],SI (selectivity index for hAChE) [1],"IC50 [2, 3] [µM]",IC50 [2] [µM]
COc1ccc2nc3c(c(NCCCCCNC(=S)NC45CC6CC(CC(C6)C4)C5)c2c1)CCCC3 [Compound 14],0.47 ± 0.09,0.2,0.11 ± 0.02,
"NC12CC3CC(CC(C3)C1)C2 [amantadine, 1-adamantylamine hydrochloride, reference compound]",,,103 ± 17.1,
"COc1ccc2nc3c(c(NCCCCN)c2c1)CCCC3 [Compound 5, N-(7-Methoxy-1,2,3,4-tetrahydroacridin-9-yl)butane-1,4-diamine]",1.42 ± 0.28,6.5,9.22 ± 1.54,
COc1ccc2nc3c(c(NCCCNC(=S)NC45CC6CC(CC(C6)C4)C5)c2c1)CCCC3 [Compound 12],0.53 ± 0.1,2.6,1.39 ± 0.23,
COc1ccc2nc3c(c(NCCCCNC(=S)NC45CC6CC(CC(C6)C4)C5)c2c1)CCCC3 [Compound 13],2.04 ± 0.39,0.5,0.98 ± 0.16,
"COc1ccc2nc3c(c(NCCCCCCCNC(=S)NC45CC6CC(CC(C6)C4)C5)c2c1)CCCC3 [Compound 16, 1-Adamantyl-3-(2-(7-methoxy-1,2,3,4-tetrahydroacridin-9-yl-amino)heptyl)thiourea 2,3-dihydroxy-succinate]",3.47 ± 0.67,0.04,0.15 ± 0.02,
COc1ccc2nc3c(c(NCCCCCCNC(=S)NC45CC6CC(CC(C6)C4)C5)c2c1)CCCC3 [Compound 15],2.09 ± 0.4,0.2,0.33 ± 0.05,
"COc1ccc2nc3c(c(NCCNC(=S)NC45CC6CC(CC(C6)C4)C5)c2c1)CCCC3 [Compound 11, 1-Adamantyl-3-(2-(7-methoxy-1,2,3,4-tetrahydroacridin-9-yl-amino)ethyl)thiourea 2,3-dihydroxysuccinate]",5.02 ± 0.98,1.2,6.02 ± 1.01,
"COc1ccc2nc3c(c(NCCCN)c2c1)CCCC3 [Compound 4, N-(7-Methoxy-1,2,3,4-tetrahydroacridin-9-yl)propane-1,3-diamine]",1.93 ± 0.38,25.8,49.8 ± 8.31,
"COc1ccc2nc3c(c(NCCCCCN)c2c1)CCCC3 [Compound 6, N-(7-Methoxy-1,2,3,4-tetrahydroacridin-9-yl)pentane-1,5-diamine]",3.44 ± 0.67,8.6,29.6 ± 4.95,
COc1ccc2nc3c(c(NCCCCCCCCNC(=S)NC45CC6CC(CC(C6)C4)C5)c2c1)CCCC3 [Compound 17],1.62 ± 0.31,0.2,0.26 ± 0.04,
"COc1ccc2nc3c(c(NCCCCCCCN)c2c1)CCCC3 [Compound 8, N-(7-Methoxy-1,2,3,4-tetrahydroacridin-9-yl)heptane-1,7-diamine]",0.86 ± 0.17,8.4,7.26 ± 1.21,
"COc1ccc2nc3c(c(NCCCCCCN)c2c1)CCCC3 [Compound 7, N-(7-Methoxy-1,2,3,4-tetrahydroacridin-9-yl)hexane-1,6-diamine]",0.21 ± 0.04,51.6,10.8 ± 1.81,
"COc1ccc2nc3c(c(NCCCCCCCCN)c2c1)CCCC3 [Compound 9, N-(7-Methoxy-1,2,3,4-tetrahydroacridin-9-yl)octane-1,8-diamine]",0.47 ± 0.09,21.4,10.1 ± 1.68,
"COc1ccc2nc3c(c(NCCN)c2c1)CCCC3 [Compound 3, N-(7-Methoxy-1,2,3,4-tetrahydroacridin-9-yl)ethane-1,2-diamine]",5.32 ± 1.04,12.1,64.4 ± 10.8,
"S=C=NC12CC3CC(CC(C3)C1)C2 [Compound 10, 1-Adamantyl isothiocyanate, reference compound]",25 ± 4.87,3.9,,96.9 ± 16.2
